Results from US20250382322A1, “DIAGNOSTICS FOR DETECTING ECTO-5'-NUCLEOTIDASE (CD73)” (EBERHARD KARLS UNIVERSITÄT TÜBINGEN, priority 2022, published 2025).

How the values were obtained:
[1] = target: T1, human NTPDase8 (Homo sapiens, UniProt Q5MY95); experiment: Capillary electrophoresis assay for human NTPDase8; format: biochemical; conditions: ATP (100 μM) as substrate
T1 sequence (Q5MY95 1-495): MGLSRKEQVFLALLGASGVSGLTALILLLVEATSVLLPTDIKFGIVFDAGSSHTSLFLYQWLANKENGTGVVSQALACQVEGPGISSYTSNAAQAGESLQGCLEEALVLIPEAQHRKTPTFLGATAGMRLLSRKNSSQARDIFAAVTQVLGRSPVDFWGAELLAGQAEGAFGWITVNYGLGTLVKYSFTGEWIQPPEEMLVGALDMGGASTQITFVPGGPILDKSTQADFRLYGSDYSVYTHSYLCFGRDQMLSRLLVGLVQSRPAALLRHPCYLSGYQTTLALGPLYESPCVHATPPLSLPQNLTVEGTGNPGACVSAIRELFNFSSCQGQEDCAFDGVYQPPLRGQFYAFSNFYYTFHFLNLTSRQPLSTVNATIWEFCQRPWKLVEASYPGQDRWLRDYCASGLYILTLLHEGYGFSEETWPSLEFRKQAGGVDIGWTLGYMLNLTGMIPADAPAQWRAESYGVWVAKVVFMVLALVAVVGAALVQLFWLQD
Method: (§1) Inhibitory activity of the CD73 inhibitors 2 and 20 at human NTPDases 1, 2, 3, and 8 was investigated using ATP (100 μM) as a substrate according to previously published procedures.^24 ATP and 2 were co-incubated with recombinantly expressed human NTPDases at 37° C. for 30 min, and the enzymatic reaction was terminated by heating at 90° C. for 10 min. The amount of enzyme preparation was adjusted to ensure 10-20% of substrate conversion. The formed products were separated by capillary electrophoresis (CE) and individually quantitated by diode array detection (DAD) at a wavelength of 260 nm. For inhibition analysis, at least three independent experiments were performed each in triplicate. The inhibition of the enzyme activity was calculated in relation to the positive control without inhibitor and plotted by GraphPad Prism 8 software (GraphPad software, San Diego, CA, USA) (for results see Table 2 and Table 3).
(§2) Test compounds were investigated at a concentration of 50 μM, and 100 μM ATP substrate according to published procedures.^24 Recombinantly expressed human NTPDases were employed. The amount of enzyme preparation was adjusted to ensure 10-20% of substrate conversion. […] The inhibition of the enzyme activity was calculated in relation to the positive control without inhibitor and plotted in GraphPad Prism 8 software (GraphPad software, San Diego, CA, USA). […]

[2] = target: T2, human P2Y12 receptor (Homo sapiens, UniProt Q9H244); experiment: β-arrestin recruitment assay at P2Y12 receptor; format: cell-based; conditions: CHO-PK1 cells; for IC50: 2-methylthio-ADP as agonist at EC80 (3 μM), read-out: Inhibition P2Y12 receptor IC50; for EC50: read-out: Activation P2Y12 receptor EC50
T2 construct: host or cells: CHO-PK1 cells (so in the source)
T2 sequence (Q9H244 whole entry): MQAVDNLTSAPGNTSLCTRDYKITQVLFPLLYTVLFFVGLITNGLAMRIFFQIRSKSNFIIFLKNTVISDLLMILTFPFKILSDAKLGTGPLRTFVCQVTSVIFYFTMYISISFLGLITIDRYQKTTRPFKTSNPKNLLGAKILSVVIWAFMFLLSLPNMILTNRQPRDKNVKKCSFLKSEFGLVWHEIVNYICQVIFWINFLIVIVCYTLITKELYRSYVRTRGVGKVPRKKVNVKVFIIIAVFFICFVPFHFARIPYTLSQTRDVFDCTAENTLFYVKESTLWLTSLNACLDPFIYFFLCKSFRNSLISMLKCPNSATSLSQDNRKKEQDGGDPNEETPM
From the text: The interaction of 2 with the human P2Y12 receptor was investigated in a β-arrestin recruitment assay using the galactosidase complementation technology as previously described.^25-27 The human P2Y12 receptor was expressed in CHO-PK1 cells (Eurofins DiscoverX, Fremont, CA, USA). For results see Table 2 and Table 3.

[3] = target: T3, human NTPDase1 (Homo sapiens, UniProt P49961); experiment: Capillary electrophoresis assay for human NTPDase1; format: biochemical; conditions: ATP (100 μM) as substrate
T3 sequence (P49961 1-510): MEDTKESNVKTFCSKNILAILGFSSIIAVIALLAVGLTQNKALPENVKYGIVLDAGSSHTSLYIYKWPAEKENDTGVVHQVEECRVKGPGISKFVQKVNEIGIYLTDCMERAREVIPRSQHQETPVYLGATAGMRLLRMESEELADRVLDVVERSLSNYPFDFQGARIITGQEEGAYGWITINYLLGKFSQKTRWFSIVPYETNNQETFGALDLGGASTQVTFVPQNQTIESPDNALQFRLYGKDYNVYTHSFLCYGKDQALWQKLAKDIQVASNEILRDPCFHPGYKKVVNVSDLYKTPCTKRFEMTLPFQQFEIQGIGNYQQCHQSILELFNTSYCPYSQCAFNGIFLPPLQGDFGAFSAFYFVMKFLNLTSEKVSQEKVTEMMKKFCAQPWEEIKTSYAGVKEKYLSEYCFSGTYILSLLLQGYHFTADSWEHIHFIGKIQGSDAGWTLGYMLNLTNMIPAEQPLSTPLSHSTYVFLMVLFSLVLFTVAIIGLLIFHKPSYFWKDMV
Method: as §1, §2

[4] = target: T4, human NTPDase2 (Homo sapiens, UniProt Q9Y5L3); experiment: Capillary electrophoresis assay for human NTPDase2; format: biochemical; conditions: ATP (100 μM) as substrate
T4 sequence (Q9Y5L3 1-495): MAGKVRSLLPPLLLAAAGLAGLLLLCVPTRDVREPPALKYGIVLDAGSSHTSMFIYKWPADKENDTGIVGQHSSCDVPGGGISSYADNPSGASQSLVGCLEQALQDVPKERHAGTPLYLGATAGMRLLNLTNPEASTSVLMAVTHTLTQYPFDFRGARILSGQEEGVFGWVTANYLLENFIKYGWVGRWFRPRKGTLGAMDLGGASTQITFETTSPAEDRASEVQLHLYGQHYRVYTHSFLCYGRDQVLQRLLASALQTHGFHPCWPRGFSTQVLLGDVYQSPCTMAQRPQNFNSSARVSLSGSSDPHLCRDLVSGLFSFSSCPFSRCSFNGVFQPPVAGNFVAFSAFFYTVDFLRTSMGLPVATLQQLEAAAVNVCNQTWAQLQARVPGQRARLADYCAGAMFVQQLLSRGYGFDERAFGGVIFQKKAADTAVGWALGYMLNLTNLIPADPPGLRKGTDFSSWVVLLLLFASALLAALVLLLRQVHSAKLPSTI
Method: as §1, §2

Row | IC50 [1] | IC50 [2] | EC50 [2] | IC50 [3] | IC50 [4] | Compound
1 | > 50 µM | > 10 µM | > 10 µM | > 50 µM | > 50 µM | CCCN(Cc1ccc(-c2cn(CCF)nn2)cc1)c1nc(Cl)nc2c1ncn2[C@@H]1O[C@H](COP(=O)(O)CP(=O)(O)O)C(O)C1O (stereo partly shown) [Compound 2]
2 | < 50 µM | > 10 µM | > 10 µM | 27.6 µM | < 50 µM | O=C(NCCCCCCNC(=O)c1ccc2c(c1)C1(OC2=O)c2ccc(O)cc2Oc2cc(O)ccc21)c1ccc(CNc2nc(Cl)nc3c2ncn3[C@@H]2O[C@H](COP(=O)(O)CP(=O)(O)O)[C@@H](O)[C@H]2O)cc1 [Compound 20, (((((2R,3S,4R,5R)-5-(2-chloro-6-((4-((6-(3′,6′-dihydroxy-3-oxo-3H-spiro[isobenzofuran-1,9′-xanthene]-6-carboxamido)-hexyl)carbamoyl)benzyl)amino)-9H-purin-9-yl)-3,4-dihydroxytetrahydrofuran-2-yl)methoxy)(hydroxy)phosphoryl)methyl)phosphonic acid]
